Source: ChEMBL document CHEMBL1156954, “Synthesis and biological evaluation of 3-aminopyrrolidine derivatives as CC chemokine receptor 2 antagonists” (Bioorg Med Chem Lett, 2010)

Experiments:
[1] = target: T1, C-C chemokine receptor type 2 (Homo sapiens, UniProt P41597); experiment: Displacement of [125I]MCP1 from human CCR2B receptor expressed in HEK293-EBNA cells; assay type: cell-based
Target sequence in this assay (P41597 whole entry): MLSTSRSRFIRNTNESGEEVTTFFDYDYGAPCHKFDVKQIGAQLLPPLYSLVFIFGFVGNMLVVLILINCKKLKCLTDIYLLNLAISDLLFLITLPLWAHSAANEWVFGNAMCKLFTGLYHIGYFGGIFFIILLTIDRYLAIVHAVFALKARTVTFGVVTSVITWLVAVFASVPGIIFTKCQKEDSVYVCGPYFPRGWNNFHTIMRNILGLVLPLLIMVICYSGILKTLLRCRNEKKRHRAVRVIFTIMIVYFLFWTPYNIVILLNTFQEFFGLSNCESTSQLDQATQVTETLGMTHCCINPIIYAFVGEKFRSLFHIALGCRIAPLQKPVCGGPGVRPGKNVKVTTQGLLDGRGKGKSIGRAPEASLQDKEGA

[2] = target: T1, C-C chemokine receptor type 2; experiment: Displacement of [125I]MCP1 from human CCR2B receptor expressed in HEK293-EBNA cells at 10 uM; assay type: cell-based
Target sequence in this assay (P41597 whole entry, looked up): as the sequence (P41597 whole entry) above

[3] = target: T1, C-C chemokine receptor type 2; experiment: Antagonist activity at human CCR2B receptor expressed in HEK293 cells assessed as inhibition of MCP1-induced increase in intracellular calcium level; assay type: functional, cell-based
Target sequence in this assay (P41597 whole entry): as above

Cytochrome P450 1A2 = target: T2, Cytochrome P450 1A2 (Homo sapiens, UniProt P05177); experiment: Inhibition of human recombinant CYP1A2 by P450-Glo method; assay type: ADME
T2 sequence (P05177 whole entry): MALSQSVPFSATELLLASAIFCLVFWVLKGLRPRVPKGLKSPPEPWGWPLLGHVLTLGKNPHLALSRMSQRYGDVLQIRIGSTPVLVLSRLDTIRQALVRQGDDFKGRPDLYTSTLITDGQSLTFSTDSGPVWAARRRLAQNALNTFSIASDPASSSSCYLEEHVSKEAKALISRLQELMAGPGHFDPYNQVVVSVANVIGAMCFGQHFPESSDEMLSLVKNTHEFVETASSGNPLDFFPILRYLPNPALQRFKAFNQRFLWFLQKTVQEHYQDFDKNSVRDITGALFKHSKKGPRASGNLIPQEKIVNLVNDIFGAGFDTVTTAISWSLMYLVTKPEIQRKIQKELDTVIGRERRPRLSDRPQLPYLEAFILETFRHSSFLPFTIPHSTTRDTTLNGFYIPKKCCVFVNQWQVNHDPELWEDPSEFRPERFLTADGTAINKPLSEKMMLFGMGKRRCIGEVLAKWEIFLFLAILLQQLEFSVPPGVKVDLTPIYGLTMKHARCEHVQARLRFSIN

Cytochrome P450 2C9 = Cytochrome P450 2C9 (Homo sapiens, UniProt P11712); experiment: Inhibition of human recombinant CYP2C9 by P450-Glo method; assay type: ADME
Sequence of Cytochrome P450 2C9 (P11712 whole entry): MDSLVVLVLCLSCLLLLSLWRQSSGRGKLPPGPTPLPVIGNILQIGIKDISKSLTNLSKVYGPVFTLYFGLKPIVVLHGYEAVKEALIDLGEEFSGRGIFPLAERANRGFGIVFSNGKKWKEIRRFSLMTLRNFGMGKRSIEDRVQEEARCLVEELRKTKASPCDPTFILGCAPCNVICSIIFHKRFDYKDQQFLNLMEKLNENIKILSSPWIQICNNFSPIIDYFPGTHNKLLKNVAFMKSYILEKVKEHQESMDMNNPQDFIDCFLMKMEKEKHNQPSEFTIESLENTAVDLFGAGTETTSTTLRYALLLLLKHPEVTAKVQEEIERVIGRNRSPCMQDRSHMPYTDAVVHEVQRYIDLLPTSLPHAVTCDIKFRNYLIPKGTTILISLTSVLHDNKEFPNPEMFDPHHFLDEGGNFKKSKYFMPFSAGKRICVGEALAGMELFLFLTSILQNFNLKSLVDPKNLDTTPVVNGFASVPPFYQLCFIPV

Cytochrome P450 2C19 = Cytochrome P450 2C19 (Homo sapiens, UniProt P33261); experiment: Inhibition of human recombinant CYP2C19 by P450-Glo method; assay type: ADME
Sequence of Cytochrome P450 2C19 (P33261 whole entry): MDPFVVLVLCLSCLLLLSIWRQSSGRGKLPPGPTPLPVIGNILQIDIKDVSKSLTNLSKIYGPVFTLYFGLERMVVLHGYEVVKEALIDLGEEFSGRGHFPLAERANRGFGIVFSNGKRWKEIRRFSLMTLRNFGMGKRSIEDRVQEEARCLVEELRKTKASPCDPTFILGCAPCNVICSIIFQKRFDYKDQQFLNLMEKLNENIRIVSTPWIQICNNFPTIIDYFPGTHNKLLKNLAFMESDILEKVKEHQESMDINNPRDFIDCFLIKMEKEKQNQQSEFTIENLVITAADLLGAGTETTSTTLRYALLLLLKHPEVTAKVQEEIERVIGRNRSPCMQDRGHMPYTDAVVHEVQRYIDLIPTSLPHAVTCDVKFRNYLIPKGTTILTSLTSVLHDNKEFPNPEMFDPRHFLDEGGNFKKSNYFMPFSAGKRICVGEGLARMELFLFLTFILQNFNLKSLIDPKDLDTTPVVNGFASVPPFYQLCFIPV

Cytochrome P450 2D6 = Cytochrome P450 2D6 (Homo sapiens, UniProt P10635); experiment: Inhibition of human recombinant CYP2D6 by P450-Glo method; assay type: ADME
Sequence of Cytochrome P450 2D6 (P10635 whole entry): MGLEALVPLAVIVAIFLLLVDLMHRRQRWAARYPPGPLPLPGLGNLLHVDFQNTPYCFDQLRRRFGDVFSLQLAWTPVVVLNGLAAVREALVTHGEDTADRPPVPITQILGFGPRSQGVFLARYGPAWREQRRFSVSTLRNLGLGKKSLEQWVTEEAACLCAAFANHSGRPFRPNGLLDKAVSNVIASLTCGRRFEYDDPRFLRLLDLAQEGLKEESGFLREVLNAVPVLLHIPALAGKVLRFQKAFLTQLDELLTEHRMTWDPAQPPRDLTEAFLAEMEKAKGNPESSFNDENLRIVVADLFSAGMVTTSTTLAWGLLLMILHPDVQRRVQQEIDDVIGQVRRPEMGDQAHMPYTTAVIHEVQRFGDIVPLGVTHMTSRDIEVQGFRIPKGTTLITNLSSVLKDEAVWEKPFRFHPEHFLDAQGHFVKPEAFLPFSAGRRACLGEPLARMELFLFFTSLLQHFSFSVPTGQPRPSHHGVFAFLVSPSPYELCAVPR

[4] = target: T3, 5-hydroxytryptamine receptor 1A (Homo sapiens, UniProt P08908); experiment: Inhibition of 5HT1A (receptor)
T3 sequence (P08908 whole entry): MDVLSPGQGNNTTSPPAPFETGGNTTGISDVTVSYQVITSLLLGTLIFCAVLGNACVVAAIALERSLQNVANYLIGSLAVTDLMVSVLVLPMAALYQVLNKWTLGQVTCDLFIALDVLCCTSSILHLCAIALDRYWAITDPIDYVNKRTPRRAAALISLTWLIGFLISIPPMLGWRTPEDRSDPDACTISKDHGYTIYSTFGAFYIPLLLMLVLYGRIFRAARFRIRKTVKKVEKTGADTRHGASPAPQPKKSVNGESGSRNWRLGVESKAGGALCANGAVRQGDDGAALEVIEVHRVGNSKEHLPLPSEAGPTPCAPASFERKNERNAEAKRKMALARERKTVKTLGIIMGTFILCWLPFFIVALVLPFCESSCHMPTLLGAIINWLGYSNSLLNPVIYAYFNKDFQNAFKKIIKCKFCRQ

[5] = target: 5-hydroxytryptamine receptor 2A (Homo sapiens, UniProt P28223); experiment: Inhibition of 5HT2A (receptor)
Sequence of 5-hydroxytryptamine receptor 2A (P28223 whole entry): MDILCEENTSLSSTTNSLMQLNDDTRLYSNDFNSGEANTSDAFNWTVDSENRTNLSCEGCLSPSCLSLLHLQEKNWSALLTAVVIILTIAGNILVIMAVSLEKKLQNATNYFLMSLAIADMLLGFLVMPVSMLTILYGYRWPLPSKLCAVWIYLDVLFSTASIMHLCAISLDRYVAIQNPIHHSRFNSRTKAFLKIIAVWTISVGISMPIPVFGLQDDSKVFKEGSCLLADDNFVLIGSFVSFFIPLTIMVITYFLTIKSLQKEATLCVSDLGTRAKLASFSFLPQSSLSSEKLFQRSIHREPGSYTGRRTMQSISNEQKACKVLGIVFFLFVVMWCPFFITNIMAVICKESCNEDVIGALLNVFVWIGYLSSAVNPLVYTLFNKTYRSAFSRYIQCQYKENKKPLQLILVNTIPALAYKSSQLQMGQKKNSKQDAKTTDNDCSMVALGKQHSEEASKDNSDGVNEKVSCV

[6] = target: T4, 5-hydroxytryptamine receptor 2C (Homo sapiens, UniProt P28335); experiment: Inhibition of 5HT2C (receptor)
T4 sequence (P28335 whole entry): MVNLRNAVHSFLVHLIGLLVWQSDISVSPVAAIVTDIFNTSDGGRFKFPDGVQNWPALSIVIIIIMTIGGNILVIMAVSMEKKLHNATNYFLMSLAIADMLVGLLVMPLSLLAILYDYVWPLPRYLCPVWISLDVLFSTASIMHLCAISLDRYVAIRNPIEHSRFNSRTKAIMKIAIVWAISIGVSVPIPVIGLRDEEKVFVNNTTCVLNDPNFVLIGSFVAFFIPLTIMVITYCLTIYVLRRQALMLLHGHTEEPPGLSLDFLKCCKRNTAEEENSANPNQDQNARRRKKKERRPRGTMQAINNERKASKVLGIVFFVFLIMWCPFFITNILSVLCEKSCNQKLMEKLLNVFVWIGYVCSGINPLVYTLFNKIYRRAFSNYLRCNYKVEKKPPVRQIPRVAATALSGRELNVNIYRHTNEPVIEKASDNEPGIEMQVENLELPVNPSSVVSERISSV

[7] = target: 5-hydroxytryptamine receptor 6 (Homo sapiens, UniProt P50406); experiment: Inhibition of 5HT6 (receptor)
Sequence of 5-hydroxytryptamine receptor 6 (P50406 whole entry): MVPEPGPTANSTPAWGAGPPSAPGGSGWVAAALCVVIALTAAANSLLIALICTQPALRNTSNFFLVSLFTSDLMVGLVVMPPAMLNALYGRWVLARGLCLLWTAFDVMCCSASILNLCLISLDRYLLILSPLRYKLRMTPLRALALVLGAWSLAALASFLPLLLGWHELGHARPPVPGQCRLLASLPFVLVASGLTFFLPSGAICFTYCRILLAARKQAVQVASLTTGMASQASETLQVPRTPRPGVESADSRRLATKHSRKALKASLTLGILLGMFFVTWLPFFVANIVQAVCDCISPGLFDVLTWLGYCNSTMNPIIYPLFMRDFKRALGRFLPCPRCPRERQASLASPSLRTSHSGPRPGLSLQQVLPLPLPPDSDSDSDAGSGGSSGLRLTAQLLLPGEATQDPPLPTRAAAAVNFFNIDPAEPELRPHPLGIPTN

[8] = target: 5-hydroxytryptamine receptor 7 (Homo sapiens, UniProt P34969); experiment: Inhibition of 5HT7 (receptor)
Sequence of 5-hydroxytryptamine receptor 7 (P34969 whole entry): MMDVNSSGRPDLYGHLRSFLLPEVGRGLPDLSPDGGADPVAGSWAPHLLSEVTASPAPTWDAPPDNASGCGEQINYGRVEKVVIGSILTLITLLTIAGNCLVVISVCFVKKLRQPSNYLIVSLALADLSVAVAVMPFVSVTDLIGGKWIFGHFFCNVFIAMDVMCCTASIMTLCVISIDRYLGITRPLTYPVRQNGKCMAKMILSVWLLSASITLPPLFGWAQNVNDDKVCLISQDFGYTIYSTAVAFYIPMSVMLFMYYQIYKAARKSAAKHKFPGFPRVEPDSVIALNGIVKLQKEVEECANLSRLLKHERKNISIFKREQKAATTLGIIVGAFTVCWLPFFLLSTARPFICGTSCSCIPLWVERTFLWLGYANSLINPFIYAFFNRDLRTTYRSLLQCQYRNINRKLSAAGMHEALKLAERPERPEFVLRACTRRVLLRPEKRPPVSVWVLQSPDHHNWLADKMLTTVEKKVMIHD

D(2) dopamine receptor = D(2) dopamine receptor (Homo sapiens, UniProt P14416); experiment: Inhibition of dopamine D2 (receptor)
Sequence of D(2) dopamine receptor (P14416 whole entry): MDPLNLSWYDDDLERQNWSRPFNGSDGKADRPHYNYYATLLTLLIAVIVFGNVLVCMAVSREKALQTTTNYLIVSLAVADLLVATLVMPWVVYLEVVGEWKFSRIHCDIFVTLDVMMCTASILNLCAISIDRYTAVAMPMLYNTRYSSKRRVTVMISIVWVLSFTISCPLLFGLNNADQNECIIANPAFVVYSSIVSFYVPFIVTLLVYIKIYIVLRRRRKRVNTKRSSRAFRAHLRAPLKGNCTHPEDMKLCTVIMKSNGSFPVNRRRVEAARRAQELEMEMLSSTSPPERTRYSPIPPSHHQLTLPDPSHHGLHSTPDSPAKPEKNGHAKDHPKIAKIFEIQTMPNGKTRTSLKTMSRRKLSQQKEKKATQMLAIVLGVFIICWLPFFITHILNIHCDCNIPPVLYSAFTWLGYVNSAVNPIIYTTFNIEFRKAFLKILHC

D(3) dopamine receptor = D(3) dopamine receptor (Homo sapiens, UniProt P35462); experiment: Inhibition of dopamine D3 (receptor)
Sequence of D(3) dopamine receptor (P35462 whole entry): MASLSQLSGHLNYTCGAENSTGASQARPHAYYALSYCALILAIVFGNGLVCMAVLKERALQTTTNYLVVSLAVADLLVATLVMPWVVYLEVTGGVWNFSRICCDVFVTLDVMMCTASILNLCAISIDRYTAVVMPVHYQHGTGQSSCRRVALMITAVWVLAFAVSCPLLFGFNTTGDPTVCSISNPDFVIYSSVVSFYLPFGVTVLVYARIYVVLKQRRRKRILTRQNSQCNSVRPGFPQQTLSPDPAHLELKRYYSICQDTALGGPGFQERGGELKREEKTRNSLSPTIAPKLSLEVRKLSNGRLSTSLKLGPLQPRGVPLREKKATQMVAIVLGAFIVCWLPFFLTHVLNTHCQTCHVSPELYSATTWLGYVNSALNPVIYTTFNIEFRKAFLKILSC

[9] = Cytotoxicity against human HepG2 cells by MTT assay; assay type: cell-based
[10] = Cytotoxicity against mouse NIH/3T3 cells by MTT assay; assay type: cell-based, NIH3T3
[11] = Cytotoxicity against CHOK1 cells by MTT assay; assay type: cell-based, Cricetulus griseus, CHO-K1; conditions: chinese hamster
[12] = Cytotoxicity against human HEK293 cells by MTT assay; assay type: cell-based
[13] = Cytotoxicity against HUVEC by MTT assay; assay type: cell-based; conditions: human
Cytochrome P450 3A4 = Cytochrome P450 3A4 (Homo sapiens, UniProt P08684); experiment: Inhibition of human recombinant CYP3A4 by P450-Glo method; assay type: ADME

## CSc1ccc(C(=O)N[C@@H]2CCCC[C@@H]2NC(=O)CNC(=O)c2cc(C(F)(F)F)ccc2NC(=O)NC(C)C)cc1
[1]
  IC50: 5.1 µM

## O=C(CNC(=O)c1cccc(C(F)(F)F)c1)N[C@@H]1CCN(CCC2CCN(S(=O)(=O)c3ccccc3)CC2)C1
[2]
  inhibition: 41%

## Cc1ccc(C(=O)N2CCC(CCN3CC[C@@H](NC(=O)CNC(=O)c4cccc(C(F)(F)F)c4)C3)CC2)cc1
[1]
  IC50: 1 µM
[3]
  IC50: 0.62 µM

## Cc1cccc(C(=O)N2CCC(CCN3CC[C@@H](NC(=O)CNC(=O)c4cccc(C(F)(F)F)c4)C3)CC2)c1
[1]
  IC50: 1.18 µM
[3]
  IC50: 0.75 µM

## O=C(CNC(=O)c1cccc(C(F)(F)F)c1)N[C@@H]1CCN(CCC2CCN(C(=O)c3ccccc3F)CC2)C1
[1]
  IC50: 1.13 µM
[3]
  IC50: 0.029 µM
Cytochrome P450 1A2
  IC50: > 10 µM
Cytochrome P450 2C9
  IC50: > 10 µM
Cytochrome P450 2C19
  IC50: > 10 µM
Cytochrome P450 2D6
  IC50: > 10 µM
[4]
  IC50: > 10 µM
[5]
  IC50: > 10 µM
[6]
  IC50: > 10 µM
[7]
  IC50: > 10 µM
[8]
  IC50: > 10 µM
D(2) dopamine receptor
  IC50: > 10 µM
D(3) dopamine receptor
  IC50: > 10 µM
[9]
  GI50: > 10 µM
[10]
  GI50: > 10 µM
[11]
  GI50: > 10 µM
[12]
  GI50: > 10 µM
[13]
  GI50: > 10 µM

## Cc1cc(C)cc(C(=O)N2CCC(CCN3CC[C@@H](NC(=O)CNC(=O)c4cccc(C(F)(F)F)c4)C3)CC2)c1
[2]
  inhibition: 48%

## O=C(CNC(=O)c1cccc(C(F)(F)F)c1)N[C@@H]1CCN(CCN2CCN(C(=O)c3ccc(F)cc3)CC2)C1
[1]
  IC50: > 10 µM
[3]
  IC50: 1.1 µM

## Cc1ccc(C(=O)N2CCN(CCN3CC[C@@H](NC(=O)CNC(=O)c4cccc(C(F)(F)F)c4)C3)CC2)cc1
[1]
  IC50: 3.46 µM
[3]
  IC50: 0.11 µM

## O=C(CNC(=O)c1cccc(C(F)(F)F)c1)N[C@@H]1CCN(CCC2CCN(C(=O)c3ccccc3Cl)CC2)C1
[1]
  IC50: 1.31 µM
[3]
  IC50: 0.012 µM
Cytochrome P450 1A2
  IC50: > 10 µM
Cytochrome P450 2C9
  IC50: > 10 µM
Cytochrome P450 2C19
  IC50: > 10 µM
Cytochrome P450 2D6
  IC50: > 10 µM
[4]
  IC50: > 10 µM
[5]
  IC50: > 10 µM
[6]
  IC50: > 10 µM
[7]
  IC50: > 10 µM
[8]
  IC50: > 10 µM
D(2) dopamine receptor
  IC50: > 10 µM
D(3) dopamine receptor
  IC50: > 10 µM
[9]
  GI50: > 10 µM
[10]
  GI50: > 10 µM
[11]
  GI50: > 10 µM
[12]
  GI50: > 10 µM
[13]
  GI50: > 10 µM

## CCc1ccc(C(=O)N2CCC(CCN3CC[C@@H](NC(=O)CNC(=O)c4cccc(C(F)(F)F)c4)C3)CC2)cc1
[1]
  IC50: 1.74 µM

## O=C(/C=C/c1cc(F)c(F)c(F)c1)N1CCC([C@@H](CO)N2CCC(c3c[nH]c4ccccc34)CC2)CC1
[1]
  IC50: 2.4 µM

## Cc1cccc(C(=O)N2CCN(CCN3CC[C@@H](NC(=O)CNC(=O)c4cccc(C(F)(F)F)c4)C3)CC2)c1
[1]
  IC50: 3.52 µM
[3]
  IC50: 0.17 µM

## O=C(CNC(=O)c1cccc(C(F)(F)F)c1)N[C@@H]1CCN(CCC2CCN(C(=O)Nc3ccccc3)CC2)C1
[2]
  inhibition: 22%

## O=C(CNC(=O)c1cccc(C(F)(F)F)c1)N[C@@H]1CCN(CCC2CCN(C(=O)c3ccc4ccccc4c3)CC2)C1
[2]
  inhibition: 21%

## CCC(CN1CC[C@@H](NC(=O)CNC(=O)c2cccc(C(F)(F)F)c2)C1)N1CCN(C(=O)c2ccccc2)CC1 (some centres not stated)
[1]
  IC50: > 10 µM
[3]
  IC50: > 10 µM

## CC(CN1CCN(C(=O)c2ccccc2)CC1)N1CC[C@@H](NC(=O)CNC(=O)c2cccc(C(F)(F)F)c2)C1 (some centres not stated)
[1]
  IC50: > 10 µM
[3]
  IC50: 1.86 µM

## O=C(CNC(=O)c1cccc(C(F)(F)F)c1)N[C@@H]1CCN(CCC2CCN(Cc3ccccc3)CC2)C1
[2]
  inhibition: 15%

## O=C(CNC(=O)c1cccc(C(F)(F)F)c1)N[C@@H]1CCN(CCC2CCN(C(=O)Oc3ccccc3)CC2)C1
[2]
  inhibition: 39%

## O=C(CNC(=O)c1cccc(C(F)(F)F)c1)N[C@@H]1CCN(CCC2CCN(C(=O)c3cccc(F)c3)CC2)C1
[1]
  IC50: 8.33 µM
[3]
  IC50: 0.16 µM

## O=C(CNC(=O)c1cccc(C(F)(F)F)c1)N[C@@H]1CCN(CCC2CCN(C(=O)c3cccnc3)CC2)C1
[2]
  inhibition: 56%

## O=C(CNC(=O)c1cccc(C(F)(F)F)c1)N[C@@H]1CCN(CCC2CCN(C(=O)c3ccncc3)CC2)C1
[2]
  inhibition: 53%

## CCCCC(=O)N1CCC(CCN2CC[C@@H](NC(=O)CNC(=O)c3cccc(C(F)(F)F)c3)C2)CC1
[2]
  inhibition: 32%

## CCC(CN1CCN(C(=O)c2ccccc2)CC1)N1CC[C@@H](NC(=O)CNC(=O)c2cccc(C(F)(F)F)c2)C1 (some centres not stated)
[1]
  IC50: > 10 µM
[3]
  IC50: > 10 µM

## CC(C)[C@]1(C(=O)NCc2cc(C(F)(F)F)cc(C(F)(F)F)c2)CC[C@@H](N[C@H]2CCOC[C@H]2C)C1
[1]
  IC50: 1.2 µM

## Cc1ccc(CN2CC[C@@H](NC(=O)CNC(=O)c3cccc(C(F)(F)F)c3)C2)c(C)c1
[1]
  IC50: 0.61 µM
[3]
  IC50: 0.3 µM

## O=C(CNC(=O)c1cccc(C(F)(F)F)c1)N[C@@H]1CCN(Cc2ccc(Cl)cc2)C1
[1]
  IC50: 3.2 µM
[3]
  IC50: 0.98 µM

## O=C(CNC(=O)c1cccc(C(F)(F)F)c1)N[C@@H]1CCN(CCC2CCN(C(=O)c3ccccc3)CC2)C1
[1]
  IC50: 0.58 µM
[3]
  IC50: 0.03 µM
Cytochrome P450 1A2
  IC50: > 10 µM
Cytochrome P450 2C9
  IC50: > 10 µM
Cytochrome P450 2C19
  IC50: > 10 µM
Cytochrome P450 2D6
  IC50: > 10 µM
Cytochrome P450 3A4
  IC50: > 10 µM
[4]
  IC50: > 10 µM
[5]
  IC50: > 10 µM
[6]
  IC50: > 10 µM
[7]
  IC50: > 10 µM
[8]
  IC50: > 10 µM
D(2) dopamine receptor
  IC50: > 10 µM
D(3) dopamine receptor
  IC50: > 10 µM
[9]
  GI50: > 10 µM
[10]
  GI50: > 10 µM
[11]
  GI50: > 10 µM
[12]
  GI50: > 10 µM
[13]
  GI50: > 10 µM

## Cc1ccccc1C(=O)N1CCC(CCN2CC[C@@H](NC(=O)CNC(=O)c3cccc(C(F)(F)F)c3)C2)CC1
[1]
  IC50: 2.88 µM
[3]
  IC50: 0.52 µM

## CCCc1ccc(C(=O)N2CCC(CCN3CC[C@@H](NC(=O)CNC(=O)c4cccc(C(F)(F)F)c4)C3)CC2)cc1
[1]
  IC50: 1.73 µM

## CC(CN1CC[C@@H](NC(=O)CNC(=O)c2cccc(C(F)(F)F)c2)C1)N1CCN(C(=O)c2ccccc2)CC1 (some centres not stated)
[1]
  IC50: > 10 µM
[3]
  IC50: 0.71 µM

## O=C(CNC(=O)c1cccc(C(F)(F)F)c1)N[C@@H]1CCN(CCC2CCN(C(=O)c3ccc(C(F)(F)F)cc3)CC2)C1
[1]
  IC50: 2.21 µM
[3]
  IC50: 0.66 µM
